Consider twelve compounds from patent US6469146B1, “Radiopharmaceutical products suitable for the selective labeling of lymphocytes, and their preparation” (Cis Bio International, priority 2000, dated 2002).

The subject of test [1] is leukocytes. Particulars: in the presence of blood cells (erythrocytes, leukocytes, platelets); documents [3], [4], [6]; cited from earlier work.
In test [2] the test system is human blood. As to the kind of experiment: Labeling of blood cells: yield of cell labeling in whole blood. The class given is cell-based. Particulars: 2 mCi (74 MBq) in 3 mL fresh human blood, 10 minutes, after washings. The method, then: (§1) The radiopharmaceuticals of table I (2 mCi; 74 MBq) are incubated in 3 mL of a fresh sample of human blood for 10 minutes under slow shaking. The blood composition depends upon each sample taken from healthy volunteers (average composition: 1.6±0.3.10^10 Red Globules (RG) and 2.2±0.3.10^7 White Globules (WG) with 1.2±0.3.10^7 Polymorphs (57±9%) and 0.7±0.3.10^7 Lymphocytes (35±4%)]. Non-bound radioactivity is removed by successive washings (2×10 mL of RPMI culture medium 1640) of 10 minutes at 600 g. The yield of cell labeling is determined in a CAPINTEC CRC 120 activimeter. Cell viability is controlled by the Trypan blue exclusion test.
(§2) The results obtained, namely the labeling yield (Yield) and the percentages of activity in the separated fractions are given in tables 3 to 5.

Test [3] relates to whole blood. As to the kind of experiment: Cell separation on whole blood (Polymorphprep gradient), activity in separated fractions. Details: tested at 2 mCi (74 MBq) in 3 mL blood. The format is cell-based, human. Particulars: for Cell separation on whole blood (activity %): Polymorphprep: fraction: Polymorphprep gradient; for Cell separation on whole blood (activity %): Erythrocytes: fraction: erythrocytes; for Cell separation on whole blood (activity %): Leukocytes: fraction: leukocytes; for Cell separation on whole blood (activity %): Medium: fraction: medium. As for the experimental part: as §1, §2
In a first experiment, a separation of the blood constituents is made on a double density Polymorphprep® gradient.
Whole blood from healthy volunteers is labeled with 2 mCi of [^99mTc(ArCS3)2(ArCS2)] following the method described above. The blood constituents are then separated by the Polymorphprep® double density gradient into two separate fractions: lymphocytes and polymorphs/erythrocytes. The whole blood, diluted in 2-3 mL RPMI, is initially delicately placed on the Polymorphprep® gradient and then centrifuged (300 g, 20 min, 37° C.). […] Counting is made on each fraction using a MAXM Y07 00 367 counter in order to confirm cell constitution.

Take [^99mTCN(CH3)(CH2)8CS2)2]: the “blood cell selectivity of labeling” value in test [1] was “selectivity for lymphocytes”.

Take `COc1cccc(C(=S)S[S][99Tc]([S]SC(=S)c2cccc(OC)c2)[S]C(=S)c2cccc(OC)c2)c1` [Example 15, [^99mTc(3-MeOPhCS3)2(3-MeOPhCS2)]]: the “Yield (±3%) of cell labeling” value in test [2] is 99%. Further, in test [3], the “Cell separation on whole blood (activity %): Polymorphprep” value came out at 2%, the “Cell separation on whole blood (activity %): Erythrocytes” value is listed as 25% and the “Cell separation on whole blood (activity %): Leukocytes” value turned out to be 73%.

On to `Cc1cc(C)c(C(=S)S[S][99Tc]([S]SC(=S)c2cc(C)c(C)cc2C)[S]C(=S)c2cc(C)c(C)cc2C)cc1C` [Example 21, [^99mTc(2,4,5-Me3PhCS3)2(2,4,5-Me3PhCS2)]], for which the “Yield (±3%) of cell labeling” value in test [2] stood at 90%. In addition, in test [3], the “Cell separation on whole blood (activity %): Polymorphprep” value stood at 2%, the “Cell separation on whole blood (activity %): Erythrocytes” value turned out to be 15%, the “Cell separation on whole blood (activity %): Leukocytes” value was found to be 82% and the “Cell separation on whole blood (activity %): Medium” value is reported as 1%.

Regarding `CCCCc1ccc(C(=S)S[S][99Tc]([S]SC(=S)c2ccc(CCCC)cc2)[S]C(=S)c2ccc(CCCC)cc2)cc1` [Example 12, [^99mTc(4-nBuPhCS3)2(4-nBuPhCS2)]], in test [2], the “Yield (±3%) of cell labeling” value is given as 100%. For the same compound, in test [3], the “Cell separation on whole blood (activity %): Polymorphprep” value worked out at 4%, the “Cell separation on whole blood (activity %): Erythrocytes” value came out at 29%, the “Cell separation on whole blood (activity %): Leukocytes” value is on record as 66% and the “Cell separation on whole blood (activity %): Medium” value was 1%.

Turning to `COc1cccc(C(=S)S[S][99Tc]([S]SC(=S)c2cccc(OC)c2)[S]C(=S)c2cccc(OC)c2)c1` [Example 16, [^99mTc(3-MeOPhCS3)2(3-MeOPhCS2)]], in test [2], the “Yield (±3%) of cell labeling” value is listed as 98%. In test [3], the “Cell separation on whole blood (activity %): Polymorphprep” value is recorded as 2%, the “Cell separation on whole blood (activity %): Erythrocytes” value stood at 16%, the “Cell separation on whole blood (activity %): Leukocytes” value came out at 79% and the “Cell separation on whole blood (activity %): Medium” value came to 3%.

Take “[^99mTc(C6H12CS3)2CS2(C6H12CS2)] [Example 31]”: in test [2], the “Yield (±3%) of cell labeling” value came out at 63%. In test [3], the “Cell separation on whole blood (activity %): Polymorphprep” value turned out to be 3%, the “Cell separation on whole blood (activity %): Erythrocytes” value is 29% and the “Cell separation on whole blood (activity %): Leukocytes” value is reported as 68%.

For the compound `S=C(S[S][99Tc]([S]SC(=S)c1cccc2ccccc12)[S]C(=S)c1cccc2ccccc12)c1cccc2ccccc12` [Example 24, [^99mTc(1-naphCS3)2(1-naphCS2)]], in test [2], the “Yield (±3%) of cell labeling” value is 74%. Besides, in test [3], the “Cell separation on whole blood (activity %): Erythrocytes” value is 46%, the “Cell separation on whole blood (activity %): Leukocytes” value amounted to 53% and the “Cell separation on whole blood (activity %): Medium” value stood at 1%.

For `S=C(Cc1ccccc1)S[S][99Tc]([S]SC(=S)Cc1ccccc1)[S]C(=S)Cc1ccccc1` [Example 27, [^99mTc(PhCH2CS3)2(PhCH2CS2)]], in test [2], the “Yield (±3%) of cell labeling” value is on record as 88%. In test [3], the “Cell separation on whole blood (activity %): Polymorphprep” value came to 10%, the “Cell separation on whole blood (activity %): Erythrocytes” value is reported as 11%, the “Cell separation on whole blood (activity %): Leukocytes” value was determined as 77% and the “Cell separation on whole blood (activity %): Medium” value is listed as 1%.

Regarding `CCON(CC)C(=S)[S][99Tc](#[N])[S]C(=S)N(CC)OCC` [[^99mTcN(NOET)2], nitrurobis(N-ethoxy-N-ethyldithiocarbamato)technetium-99m], in test [1], the “blood cell selectivity of labeling” value was “leukocyte labeling, of granulocytes in particular”.

`CCc1ccc(C(=S)S[S][99Tc]([S]SC(=S)c2ccc(CC)cc2)[S]C(=S)c2ccc(CC)cc2)cc1` [Example 7, [^99mTc(4-EtPhCS3)2(4-EtPhCS2)]]: in test [2], the “Yield (±3%) of cell labeling” value came out at 93%. Besides, in test [3], the “Cell separation on whole blood (activity %): Polymorphprep” value turned out to be 3%, the “Cell separation on whole blood (activity %): Erythrocytes” value is recorded as 12%, the “Cell separation on whole blood (activity %): Leukocytes” value came out at 83% and the “Cell separation on whole blood (activity %): Medium” value came to 2%.

For the compound `Cc1ccc(C(=S)S[S][99Tc]([S]SC(=S)c2ccc(C)cc2)[S]C(=S)c2ccc(C)cc2)cc1` [Example 6, [^99mTc(4-MePhCS3)2(4-MePhCS2)]], the “Yield (±3%) of cell labeling” value in test [2] amounted to 95%. In test [3], the “Cell separation on whole blood (activity %): Polymorphprep” value worked out at 2%, the “Cell separation on whole blood (activity %): Erythrocytes” value amounted to 20% and the “Cell separation on whole blood (activity %): Leukocytes” value amounted to 78%.

For `CCc1ccc(C(=S)S[S][99Tc]([S]SC(=S)c2ccc(CC)cc2)[S]C(=S)c2ccc(CC)cc2)cc1` [Example 8, [^99mTc(4-EtPhCS3)2(4-EtPhCS2)]], in test [2], the “Yield (±3%) of cell labeling” value turned out to be 99%. For the same compound, in test [3], the “Cell separation on whole blood (activity %): Erythrocytes” value is on record as 14%, the “Cell separation on whole blood (activity %): Leukocytes” value was found to be 85% and the “Cell separation on whole blood (activity %): Medium” value came out at 1%.
